Test results reported in US20240016763A1, “COENZYME Q10 MICROEMULSION, PREPARATION METHOD THEREFOR AND USE THEREOF” (ZHEJIANG NHU CO., LTD., priority 2021, published 2024).

Legend:
[1] = Test of stability: oxygen filling (25° C.), 15 days; assay type: physicochemical
Source text: (§1) The coenzyme Q10 microemulsion is quickly poured into a transparency meter barrel, and an inspector observes vertically downward from the barrel mouth of the transparency meter, and slowly releases the microemulsion just to a height of the microemulsion where the type at the bottom can be clearly recognized. The height of the microemulsion is the transparency of the coenzyme Q10 microemulsion, which is generally more than 30 cm to be transparent. The measurement is repeated for 3 times, and the results are averaged.
(§2) Microemulsion samples and coenzyme Q10 raw material are placed in the conditions of irradiation at 4500 Lx light intensity, oxygen filling (25° C.) and 60° C. (incubator) for 15 days, respectively, for experiments. In these experiments, samples are taken on day 0, day 5, day 10 and day 15, respectively, and the content of coenzyme Q10 is determined by HPLC, to investigate the effects of light, oxygen and temperature on the labeled content (%) of coenzyme Q10 and the appearance.
(§3) Refer to the test method of coenzyme Q10 content in Chinese Pharmacopoeia (2015 edition).

[2] = Test of stability: 60° C. (incubator), 15 days; assay type: physicochemical
Source text: as §1, §2, §3

[3] = Test of stability: irradiation at 4500 Lx light intensity, 15 days; assay type: physicochemical; conditions: 4500 Lx illumination
Source text: as §1, §2, §3

[4] = Test of bioavailability: plasma concentration in rats after intragastric administration; assay type: in vivo; conditions: mean±SD, n=10
Method: Preparation of coenzyme Q10 raw material sample solution: 0.1 g of coenzyme Q10 crystal is accurately weighed and dissolved in 100 mL of diethylene glycol monoethyl ether solution, as a raw material sample.
Microemulsion samples of Examples 1 to 6, coded as Sample 1, Sample 2, Sample 3, Sample 4, Sample 5 and Sample 6, are selected to conduct animal experiments.
Experimental conditions: the temperature of the laboratory feeding environment is 25±3° C., the relative humidity is 55% to 70%, the animals are free to drink water and eat food (deionized water and standard feed) every day, and they are fasted for 12 hours before the experiment but drink water freely.
Experimental animals and grouping: seventy 8-week-old healthy SPF-grade male SD rats, provided by Hubei Experimental Animal Research Center, weighing from 220 g to 230 g.
The rats are operated according to the international experimental guidelines for experimental animals, and every 10 rats fasted for 12 hours are divided into one group by a completely random design, totally seven groups.
Oral administration, sample collection and treatment: the rats are intragastrically administered with the same dose (15 mg/kg: coenzyme Q10 content) of microemulsion samples 1 to 6 and raw material samples, respectively. After administration, plasma is collected at 5 minutes, 15 minutes, 30 minutes, 1 hour, 3 hours, 6 hours, 10 hours and 15 hours, respectively, and put into anticoagulant centrifuge tubes containing heparin, mixed uniformly and then centrifuged to separate the plasma. After the treatment, the plasma concentration is detected by HPLC.
According to the results of the plasma concentration, statistical fitting analysis is carried out by using statistical analysis software, to calculate the plasma concentration. The results is expressed as mean value±standard deviation.

[5] = Test of particle size DV(90) (laser particle size distribution); assay type: physicochemical; conditions: sample diluted 1:20 with distilled water, 25° C.
Method: The microemulsion sample is diluted with distilled water at a ratio of 1:20 and gently shaken to form a clear microemulsion. Then, the particle size distribution of the emulsion is measured by MASTERSIZER 3000 laser particle size distribution instrument (purchased from Malvern Company, UK) at 25° C.

COC1=C(OC)C(=O)C(C/C=C(\C)CC/C=C(\C)CC/C=C(\C)CC/C=C(\C)CC/C=C(\C)CC/C=C(\C)CC/C=C(\C)CC/C=C(\C)CC/C=C(\C)CCC=C(C)C)=C(C)C1=O [coenzyme Q10 raw material, coenzyme Q10]
Labeled content of coenzyme Q10 ([1]; 0 day): 99%
Labeled content of coenzyme Q10 ([1]; 5 days): 97%
Labeled content of coenzyme Q10 ([1]; 10 days): 95%
Labeled content of coenzyme Q10 ([1]; 15 days): 90%
Labeled content of coenzyme Q10 ([2]; 0 day): 99%
Labeled content of coenzyme Q10 ([2]; 5 days): 97%
Labeled content of coenzyme Q10 ([2]; 10 days): 95%
Labeled content of coenzyme Q10 ([2]; 15 days): 92%
Labeled content of coenzyme Q10 ([3]; 0 day): 99%
Labeled content of coenzyme Q10 ([3]; 5 days): 95%
Labeled content of coenzyme Q10 ([3]; 10 days): 93%
Labeled content of coenzyme Q10 ([3]; 15 days): 88%
average plasma concentration ([4]; intragastric 15 mg/kg coenzyme Q10, 5 minutes): 12.1 µg/L
average plasma concentration ([4]; intragastric 15 mg/kg coenzyme Q10, 15 minutes): 21.3 µg/L
average plasma concentration ([4]; intragastric 15 mg/kg coenzyme Q10, 30 minutes): 49.3 µg/L
average plasma concentration ([4]; intragastric 15 mg/kg coenzyme Q10, 1 hour): 93.0 µg/L
average plasma concentration ([4]; intragastric 15 mg/kg coenzyme Q10, 3 hours): 110.4 µg/L
average plasma concentration ([4]; intragastric 15 mg/kg coenzyme Q10, 6 hours): 83.3 µg/L
average plasma concentration ([4]; intragastric 15 mg/kg coenzyme Q10, 10 hours): 37.6 µg/L
average plasma concentration ([4]; intragastric 15 mg/kg coenzyme Q10, 15 hours): 11.5 µg/L
DV(90) [5]: 75000 nm
